Measured values as given in US20030124554A1, “Screening method for compounds capable of modularing egr-1-regulated expression” (priority 2002, published 2003).

Tested on: human cell co-culture system
Assay: In vitro angiogenesis co-culture system (angiogenesis kit, TCS Biologicals), tubule formation
Assay type: cell-based
Settings: 11 days co-culture; PECAM-1 staining; Egr-1 DNA 0.5-2.5 μg per well, VEGF protein 2 ng/ml, suramin 20 μM
Method: Egr-1 under the control of the hCMV promoter (Houston et al, Arterioscler. Thromb. Vasc. Biol., 19; 281-289, 1999) was transfected into a human cell co-culture system designed to measure angiogenesis in vitro. The angiogenesis kit (TCS Biologicals) was used as described according to the manufacturer's instructions using VEGF protein (2 ng/ml) and suramin (20 μM) as positive and negative controls respectively for angiogenesis.
Optimisation of transfection in the co-culture system was performed using pGL3 control luciferase (Promega) with 1.0 μg and 0.5 μg CMV-β gal as a normalising plasmid for transfection control. Two ratios of lipid: DNA (v/w) were used; 2:1 and 4:1 (FIG. 3a.). CMV Egr-1 DNA was transfected at 0.5, 1.0, 1.5 and 2.5 μg per well in triplicate in a 24 well microtitre plate using Mirus Transit reagent (Cambridge Biosciences) at a ratio of 2:1 v/w DNA. VEGF protein positive control and suramin negative control was added to triplicate wells. After 11 days co-culture angiogenesis was determined by staining of cells for the endothelial cell marker PECAM-1 and visualisation using BCIP/NBT substrate.
Representative images of tubule formation using all four doses of Egr-1 expression plasmid together with VEGF (positive control) and suramin (negative control) were captured and processed by image analysis using Quantimet 600 image analyser and associated software. […]

## Cc1ccc(C(=O)Nc2ccc(S(=O)(=O)O)c3cc(S(=O)(=O)O)cc(S(=O)(=O)O)c23)cc1NC(=O)c1cccc(NC(=O)Nc2cccc(C(=O)Nc3cc(C(=O)Nc4ccc(S(=O)(=O)O)c5cc(S(=O)(=O)O)cc(S(=O)(=O)O)c45)ccc3C)c2)c1 [suramin]
  tubule formation: Decreased tubule formation
